The record followed here is article PMC9267128, “New 2-[(4-Amino-6-N-substituted-1,3,5-triazin-2-yl)methylthio]-N-(imidazolidin-2-ylidene)-4-chloro-5-methylbenzenesulfonamide Derivatives, Design, Synthesis and Anticancer Evaluation” (International Journal of Molecular Sciences, 2022).

Some results are limits rather than exact numbers.

In experiment [1] the test system is HCT-116 (colon cancer). Kind of experiment: MTT cell viability assay, HCT-116. In kind it is cell-based, human. The conditions noted are these: for IC50: MTT assay, 72 h of incubation; for Selectivity Index (SI) HCT-116: IC50 value toward HaCaT cells/IC50 value toward HCT-116. The procedure, abridged:
(§1)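 HCT-116 and HeLa cells in DMEM/10% FBS exposed 72 h to compounds over 1–100 µM. Viability by MTT (0.5 mg/mL, 2 h, 37 °C), formazan dissolved in DMSO and read at 550 nm; mean ± SD of at least three independent experiments.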

For experiment [2], the system named is HeLa (cervical cancer). Kind of experiment: MTT cell viability assay, HeLa. The class given is cell-based, human. The conditions noted are these: for IC50: Homo sapiens, HeLa, MTT assay, 72 h of incubation; for Selectivity Index (SI) HeLa: IC50 value toward HaCaT cells/IC50 value toward HeLa. The procedure, abridged: as §1
A general note: Tetrazolium dyes change colour on reduction, which living cells bring about.

Experiment [3] has as its system HaCaT (human keratinocyte cell line). As to the kind of experiment: MTT cell viability assay, non-cancerous HaCaT. In kind it is cell-based. The conditions noted are these: Homo sapiens, HaCaT, 72 h, 72 h of incubation, non-cancerous keratinocytes. A digest of the protocol: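 Cells in DMEM with 10% FBS, 3 × 10^3 per well, exposed to compounds at 1–100 µM for 72 h at 37 °C. MTT at 0.5 mg/mL for 2 h, formazan dissolved in DMSO and read at 550 nm. Mean ± SD of at least three independent experiments, each in triplicate.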

In experiment [4] the test system is A2780 (ovarian carcinoma cell line). As to the kind of experiment: MTT assay, wild-type p53 ovarian cancer cells A2780. In kind it is cell-based. The conditions noted are these: Homo sapiens, A2780, 72 h of incubation. As for the experimental part: (§2) Thus, the ability of the selected compounds to exert cytotoxic activity toward cell lines harboring mutant p53 was examined. Compounds displaying a high selectivity index (Table 6) were selected for the analysis of their activity toward ovarian and breast cancer cells with wild-type p53 (A2780, MCF-7) and mutant p53 (SKOV-3, T47D).
(§3) Cell viability was examined using the MTT [3-(4,5-dimethylthiazol-2-yl)-2,5-diphenyltetrazolium bromide] assay. Cells were seeded in 96-well plates at a density of 3 × 10^3 cells/well and treated for 72 h with the tested compounds in the concentration range of 1–100 µM. Then, MTT (0.5 mg/mL) was added to the medium and cells were further incubated for 2 h at 37 °C. In the next stage, cells were lysed with DMSO and the absorbance of the formazan solution was measured at 550 nm with a plate reader (1420 multilabel counter, Victor, Jügesheim, Germany). The experiment was performed in triplicate. Values are expressed as the mean ± SD of at least three independent experiments. Cisplatin was used as a positive control.
(§4) Compounds 48, 62, 134, 138 and 140 were further examined toward MCF7 (breast cancer cell line, ATCC, HTB-22), T47D (breast cancer cell line, DSMZ ACC 739), A2780 (ovarian carcinoma cell line, ECACC, 93112519), and SKOV3 (ovarian carcinoma cell line, ATCC, HTB-77) cells. Cells were grown in Dulbecco’s Modified Eagle Medium (DMEM) supplemented with 10% fetal bovine serum (Thermo Fisher Scientific).

In experiment [5] the test system is MCF7 (breast cancer cell line, ATCC, HTB-22). Kind of experiment: MTT assay, wild-type p53 breast cancer cells MCF-7 (Table 11). In kind it is cell-based, human. The conditions noted are these: Homo sapiens, MCF7; 72 h of incubation, wild-type p53, second determination. As for the experimental part: as §2, §3, §4

In general, IC50 refers to the midpoint of a concentration-inhibition curve. A higher IC50 goes with a need for much substance.

On to `Cc1cc(S(=O)(=O)N=C2NCCN2Cc2ccc(C(F)(F)F)cc2)c(SCc2nc(N)nc(N3CCN(Cc4ccccc4)CC3)n2)cc1Cl` [Compound 140], for which the IC50 in experiment [1] (Homo sapiens, HCT-116, 72 h) is less than 6 µM; in experiment [1], 5 ± 0.2 µM; in experiment [2] it was 8 ± 0.5 µM; in experiment [3], 22 ± 1 µM; in experiment [4], 4.5 ± 0.1 µM; in experiment [5], 6.9 ± 0.1 µM. For the same compound, in experiment [1], the “Selectivity Index (SI) HCT-116” value is 4.4. Further, the “Selectivity Index (SI) HeLa” value in experiment [2] was determined as 2.7.
With `Cc1cc(S(=O)(=O)N=C2NCCN2Cc2ccccc2)c(SCc2nc(N)nc(N3CCc4ccccc43)n2)cc1Cl` [Compound 48], the IC50 was found to be 6 ± 0.1 µM in experiment [1] (Homo sapiens, HCT-116, 72 h); 25 ± 0.3 µM in experiment [2]; 33 ± 1 µM in experiment [3]; 4 ± 0.1 µM in experiment [4]; 7.8 ± 0.1 µM in experiment [5]. Besides, the “Selectivity Index (SI) HCT-116” value in experiment [1] is 5.5. In experiment [2], the “Selectivity Index (SI) HeLa” value is 1.3.
